Reference: ChEMBL document CHEMBL4665687, “Isolation of 2-Alkyl-4-quinolones with Unusual Side Chains from a Chinese Pseudomonas aeruginosa Isolate” (J Nat Prod, 2020)
The source made the active and inactive calls. No cut-off for these calls is given here.

Columns and labels:
[1] = tested on: Staphylococcus epidermidis; test: Antibacterial activity against Staphylococcus epidermidis; format: functional, organism-based
Staphylococcus aureus = test: Antibacterial activity against Staphylococcus aureus; format: functional, organism-based
HeLa = test: Cytotoxicity against human HeLa cells assessed as reduction in cell viability; format: functional, cell-based

Row | Compound | Activity [1] | Activity (Staphylococcus aureus) | Activity (HeLa)
1 | CCCCCC/C=C\CCCc1cc(=O)c2ccccc2[nH]1 | Active | Active | inactive
2 | CCCCCCCc1cc(=O)c2ccccc2[nH]1 | Active | Active | inactive
3 | CC/C(C)=C/Cc1cc(=O)c2ccccc2[nH]1 | Active | Active | inactive
4 | CCCCCCCCc1cc(=O)c2ccccc2[nH]1 | Active | Active | inactive
5 | CCCCCCCCCc1cc(=O)c2ccccc2[nH]1 | Active | Active | inactive
6 | CCCC/C=C/CCCc1cc(=O)c2ccccc2[nH]1 | Active | Active | inactive
7 | CCCCCCCc1cc(O)c2ccccc2[n+]1[O-] | Active | Active | inactive
8 | CCCCCC/C=C\CCCc1cc(=O)c2ccccc2n1O | Active | Active | inactive
9 | CCCCCC/C=C/Cc1cc(=O)c2ccccc2[nH]1 | Active | Active | inactive
10 | CC(C)CCCCc1cc(=O)c2ccccc2[nH]1 | Active | Active | inactive
11 | O=c1cc(Cc2ccccc2)[nH]c2ccccc12 | Active | Active | inactive
12 | CCCCCCC/C=C/c1cc(=O)c2ccccc2[nH]1 | Active | Active | inactive
13 | CCCCC/C=C/c1cc(=O)c2ccccc2[nH]1 | Active | Active | inactive
14 | CCCC/C=C/Cc1cc(=O)c2ccccc2[nH]1 | Active | Active | inactive
15 | CCCCCCCCC/C=C/c1cc(=O)c2ccccc2[nH]1 | Active | Active | inactive
16 | CS/C=C/c1cc(=O)c2ccccc2[nH]1 | Active | Active | inactive
